Experimental data reported in ChEMBL document CHEMBL4765421, “Synthesis of natural 3'-Prenylchalconaringenin and biological evaluation of ameliorating non-alcoholic fatty liver disease and metabolic syndrome” (Eur J Med Chem, 2020).
The source made the active and inactive calls. No cut-off for these calls is given here.

Legend:
Mus musculus [1] = experiment: Hypolipidemic activity in tyloxapol-induced Kunming mouse model of hyperlipidemia assessed as increase in appearance of hepatic lobules at 50 to 100 mg/kg, po measured after 24 hrs by Oil Red O staining based assay; assay type: functional, organism-based; conditions: dose 50-100 mg/kg
Mus musculus [2] = experiment: Hypolipidemic activity in tyloxapol-induced Kunming mouse model of hyperlipidemia assessed as liver index at 100 mg/kg, po measured after 24 hrs (reference value: 65.00 +/- 0.87); assay type: functional
Mus musculus [3] = experiment: Hypolipidemic activity in tyloxapol-induced Kunming mouse model of hyperlipidemia assessed as spleen index at 100 mg/kg, po measured after 24 hrs (reference value: 3.87 +/- 0.05); assay type: functional
3T3-L1 [4] = experiment: Hypolipidemic activity in mouse 3T3-L1 preadipocytes assessed as reduction in lipid content at 15 uM by Oil Red O staining based assay relative to control; assay type: functional; set-up: scale not given: the % may be the effect or the level left
Mus musculus [5] = experiment: In vivo induction of AMPK in tyloxapol-induced Kunming mouse model of hyperlipidemia assessed as increase in AKT phosphorylation in liver at 50 to 100 mg/kg, po measured after 24 hrs by Western blot analysis; assay type: functional, organism-based; conditions: dose 50-100 mg/kg
Mus musculus [6] = experiment: Hypolipidemic activity in tyloxapol-induced Kunming mouse model of hyperlipidemia assessed as reduction in fatty liver phenotype at 50 to 100 mg/kg, po measured after 24 hrs; assay type: functional, organism-based; conditions: dose 50-100 mg/kg
3T3-L1 [7] = experiment: Activation of AMPK in mouse 3T3-L1 matured adipocytes assessed as increase in ACC phosphorylation at 1 uM by Western blot analysis relative to control; assay type: cell-based; conditions: filed as activator
3T3-L1 [8] = experiment: Hypolipidemic activity in mouse 3T3-L1 mature adipocytes assessed as reduction in lipid content at 5 uM by Oil Red O staining based assay relative to control; assay type: functional; set-up: scale not given: the % may be the effect or the level left
Mus musculus [9] = experiment: Hypolipidemic activity in tyloxapol-induced Kunming mouse model of hyperlipidemia assessed as reduction in liver total cholesterol level administered orally measured after 24 hrs; assay type: functional, organism-based
Mus musculus [10] = experiment: In vivo induction of AMPK in tyloxapol-induced Kunming mouse model of hyperlipidemia assessed as increase in AMPKalpha phosphorylation in liver at 50 to 100 mg/kg, po measured after 24 hrs by Western blot analysis; assay type: functional, organism-based; conditions: dose 50-100 mg/kg
HepG2 [11] = experiment: Hypolipidemic activity in oleic, palmitic, linoleic and arachidonic acid 29:47:18:6 (v/v)-induced hyperlipidemia in human HepG2 cells assessed as reduction in lipid content by Nile Red and DAPI staining based fluorescence microscopic analysis; assay type: functional, cell-based
Mus musculus [12] = experiment: Hypolipidemic activity in tyloxapol-induced Kunming mouse model of hyperlipidemia assessed as reduction in liver ALT level administered orally measured after 24 hrs; assay type: functional, organism-based
Mus musculus [13] = experiment: Hypolipidemic activity in tyloxapol-induced Kunming mouse model of hyperlipidemia assessed as reduction in serum total cholesterol level administered orally measured after 24 hrs; assay type: functional, organism-based
Mus musculus [14] = experiment: Hypolipidemic activity in tyloxapol-induced Kunming mouse model of hyperlipidemia assessed as reduction in serum IL6 level at 50 to 100 mg/kg, po measured after 24 hrs; assay type: functional, organism-based; conditions: dose 50-100 mg/kg
Mus musculus [15] = experiment: Hypolipidemic activity in tyloxapol-induced Kunming mouse model of hyperlipidemia assessed as spleen index at 50 mg/kg, po measured after 24 hrs (reference value: 3.87 +/- 0.05); assay type: functional
Mus musculus [16] = experiment: In vivo effect on PPAR signaling in tyloxapol-induced Kunming mouse model of hyperlipidemia assessed as decrease in PPARbeta expression in white adipose tissue at 50 to 100 mg/kg, po measured after 24 hrs by Western blot analysis; assay type: functional, organism-based; conditions: dose 50-100 mg/kg
Mus musculus [17] = experiment: Hypolipidemic activity in tyloxapol-induced Kunming mouse model of hyperlipidemia assessed as kidney index at 100 mg/kg, po measured after 24 hrs (reference value: 11.20 +/- 0.58); assay type: functional
Mus musculus [18] = experiment: In vivo effect on PPAR signaling in tyloxapol-induced Kunming mouse model of hyperlipidemia assessed as increase in mTOR phosphorylation in liver administered orally measured after 24 hrs by Western blot analysis; assay type: functional, organism-based
Mus musculus [19] = experiment: In vivo induction of AMPK in tyloxapol-induced Kunming mouse model of hyperlipidemia assessed as decrease in FAS expression in liver at 50 to 100 mg/kg, po measured after 24 hrs by Western blot analysis; assay type: functional, organism-based; conditions: dose 50-100 mg/kg
HepG2 [20] = experiment: Cytotoxicity against human HepG2 cells assessed as reduction in cell viability at 10 to 20 uM by MTT assay; assay type: cell-based; conditions: hepg2, 20 µM, dose 10-20 µM
Mus musculus [21] = experiment: In vivo induction of AMPK in tyloxapol-induced Kunming mouse model of hyperlipidemia assessed as increase in ACC phosphorylation in white adipose tissue at 50 to 100 mg/kg, po measured after 24 hrs by Western blot analysis; assay type: functional, organism-based; conditions: dose 50-100 mg/kg
Mus musculus [22] = experiment: In vivo induction of AMPK in tyloxapol-induced Kunming mouse model of hyperlipidemia assessed as increase in CPT-1A phosphorylation in liver at 50 to 100 mg/kg, po measured after 24 hrs by Western blot analysis; assay type: functional, organism-based; conditions: dose 50-100 mg/kg
3T3-L1 [23] = experiment: Hypolipidemic activity in mouse 3T3-L1 preadipocytes assessed as reduction in lipid content at 10 uM by Oil Red O staining based assay relative to control; assay type: functional; set-up: scale not given: the % may be the effect or the level left
Mus musculus [24] = experiment: Hypolipidemic activity in tyloxapol-induced Kunming mouse model of hyperlipidemia assessed as reduction in liver fibrosis at 50 to 100 mg/kg, po measured after 24 hrs by Masson's trichrome staining based assay; assay type: functional, organism-based; conditions: dose 50-100 mg/kg
HepG2 [25] = experiment: Activation of AMPK in oleic, palmitic, linoleic and arachidonic acid 29:47:18:6 (v/v)-induced human HepG2 cells assessed as increase in AMPK phosphorylation at 1 uM by Western blot analysis relative to control; conditions: filed as activator
Mus musculus [26] = experiment: In vivo effect on PPAR signaling in tyloxapol-induced Kunming mouse model of hyperlipidemia assessed as decrease in PPARgamma expression in white adipose tissue at 50 to 100 mg/kg, po measured after 24 hrs by Western blot analysis; assay type: functional, organism-based; conditions: dose 50-100 mg/kg
HepG2 [27] = experiment: Hypolipidemic activity in oleic, palmitic, linoleic and arachidonic acid 29:47:18:6 (v/v)-induced hyperlipidemia in human HepG2 cells assessed as reduction in lipid content at 10 uM by Oil Red O staining based assay relative to control; assay type: functional; set-up: scale not given: the % may be the effect or the level left
Mus musculus [28] = experiment: Hypolipidemic activity in tyloxapol-induced Kunming mouse model of hyperlipidemia assessed as reduction in serum LDL level administered orally measured after 24 hrs; assay type: functional, organism-based
Mus musculus [29] = experiment: Hypolipidemic activity in tyloxapol-induced Kunming mouse model of hyperlipidemia assessed as epididymis white adipose tissue index at 50 mg/kg, po measured after 24 hrs (reference value: 23.43 +/- 3.10); assay type: functional
3T3-L1 [30] = experiment: Activation of AMPK in mouse 3T3-L1 preadipocytes assessed as increase in AMPK phosphorylation at 0.1 to 15 uM by Western blot analysis; assay type: cell-based; conditions: filed as activator, dose 0.1-15 µM
Mus musculus [31] = experiment: In vivo induction of AMPK in tyloxapol-induced Kunming mouse model of hyperlipidemia assessed as increase in AKT phosphorylation in white adipose tissue at 50 to 100 mg/kg, po measured after 24 hrs by Western blot analysis; assay type: functional, organism-based; conditions: dose 50-100 mg/kg
Mus musculus [32] = experiment: In vivo effect on PPAR signaling in tyloxapol-induced Kunming mouse model of hyperlipidemia assessed as decrease in PPARgamma expression in liver at 50 to 100 mg/kg, po measured after 24 hrs by Western blot analysis; assay type: functional, organism-based; conditions: dose 50-100 mg/kg
Mus musculus [33] = experiment: Hypolipidemic activity in tyloxapol-induced Kunming mouse model of hyperlipidemia assessed as reduction in liver AST level administered orally measured after 24 hrs; assay type: functional, organism-based

CC(C)=CCC/C(C)=C/Cc1c(O)cc(O)c(C(=O)/C=C/c2ccc(O)cc2)c1O
Activity (Mus musculus [1]): Active | Activity_index (Mus musculus [2]): 52.78 | Activity_index (Mus musculus [3]): 2.62 | Activity (3T3-L1 [4]): 83.91% | Activity (Mus musculus [5]): Active | Activity (Mus musculus [6]): Active | Activity (3T3-L1 [7]): 260% | Activity (3T3-L1 [8]): 71.33% | Activity (Mus musculus [9]): Dose-dependent effect | Activity (Mus musculus [10]): Active | Activity (HepG2 [11]): Dose-dependent effect | Activity (Mus musculus [12]): Dose-dependent effect | Activity (Mus musculus [13]): Dose-dependent effect | Activity (Mus musculus [14]): Active | Activity_index (Mus musculus [15]): 2.8 | Activity (Mus musculus [16]): Active | Activity_index (Mus musculus [17]): 9.29 | Activity (Mus musculus [18]): Dose-dependent effect | Activity (Mus musculus [19]): Active | Activity (HepG2 [20]): Non-Toxic | Activity (Mus musculus [21]): Active | Activity (Mus musculus [22]): Active | Activity (3T3-L1 [23]): 67.87% | Activity (Mus musculus [24]): Active | Activity (HepG2 [25]): 42.9% | Activity (Mus musculus [26]): Active | Activity (HepG2 [27]): 54.38% | Activity (Mus musculus [28]): Dose-dependent effect | Activity_index (Mus musculus [29]): 14.85 | Activity (3T3-L1 [30]): Active | Activity (Mus musculus [31]): Active | Activity (Mus musculus [32]): Active | Activity (Mus musculus [33]): Dose-dependent effect
